Results reported in ChEMBL document CHEMBL1127451, “Benzoselenazolinone derivatives designed to be glutathione peroxidase mimetics feature inhibition of cyclooxygenase/5-lipoxygenase pathways and anti-inflammatory activity” (1994).

What was measured:
[1] = Inhibition of [Fe(2+)]/ascorbate-induced lipid peroxidation at 10e-5 M in rat brain homogenate
[2] = In vitro glutathione peroxidase activity at 2*10e-7M using hydrogen peroxide, activity given in percentage of ebselen''s activity; type: functional
[3] = Inhibition of spontaneous lipid peroxidation at 10e-5 M in rat brain homogenate
[4] = In vitro glutathione peroxidase activity at 2*10e-7M using tert-butyl hydroperoxide, activity given in percentage of ebselen''s activity; type: functional

| Compound | inhibition [1] [%] | GSH-Px activity [2] | inhibition [3] [%] | GSH-Px activity [4] |
| --- | --- | --- | --- | --- |
| CN(C)C(=O)Nc1ccccc1[Se][Se]c1ccccc1NC(=O)N(C)C | 97 | 236 | 96 | 178 |
| CCCC(=O)c1ccc2c(c1)[se]c(=O)n2C | -3 | 0 | 2 | 0 |
| CC(=O)c1ccc(N)c([Se][Se]c2cc(C(C)=O)ccc2N)c1 | 99 | 247 | 100 | 238 |
| CNc1ccc(C(=O)c2ccccc2)cc1[Se][Se]c1cc(C(=O)c2ccccc2)ccc1NC | 100 | 68 | 100 | 298 |
| CC(=O)c1ccc2[nH]c(=O)[se]c2c1 | 6 | 0 | 1 | 12 |
| Nc1ccc(C(=O)c2ccc(Cl)cc2)cc1[Se][Se]c1cc(C(=O)c2ccc(Cl)cc2)ccc1N | 100 | 116 | 100 | 279 |
| CC(C)(Sc1cc(C(C)(C)C)c(O)c(C(C)(C)C)c1)Sc1cc(C(C)(C)C)c(O)c(C(C)(C)C)c1 |  |  |  | 0 |
| Nc1ccc(Cc2ccccc2)cc1[Se][Se]c1cc(Cc2ccccc2)ccc1N | 97 | 227 | 91 | 242 |
| O=c1[nH]c2ccc(C(O)c3ccccc3)cc2[se]1 (centres undefined) | -1 | 0 | -1 | 10 |
| O=C(c1cccnc1)c1ccc2[nH]c(=O)[se]c2c1 | -8 | 0 | -5 | 0 |
| CCCC(=O)c1ccc2[nH]c(=O)[se]c2c1 | -2 | 0 | -3 | 0 |
| Cn1c(=O)[se]c2cc(C(=O)c3ccc(Cl)cc3)ccc21 | 2 | 0 | -3 | 0 |
| Nc1ccc(C(O)c2ccccc2)cc1[Se][Se]c1cc(C(O)c2ccccc2)ccc1N (centres undefined) | 97 | 54 | 92 | 245 |
| CN(C)C(=O)Nc1ccc(C(=O)c2ccccc2)cc1[Se][Se]c1cc(C(=O)c2ccccc2)ccc1NC(=O)N(C)C | 99 | 212 | 98 | 212 |
| CNc1ccccc1[Se][Se]c1ccccc1NC | 37 | 325 | 52 | 267 |
| Cn1c(=O)[se]c2cc(C(=O)c3cccnc3)ccc21 | 1 | 0 | 4 | 0 |
| O=c1[nH]c2ccc(Cc3ccccc3)cc2[se]1 | -7 | 0.7 | -6 | -1 |
| Cn1c(=O)[se]c2cc(C(=O)c3ccccc3)ccc21 | -3 | 0 | -1 | 0 |
| O=C(c1ccc(Cl)cc1)c1ccc2[nH]c(=O)[se]c2c1 | 5 | 0 | -5 | 0 |
| Cc1c(C)c2c(c(C)c1O)CCC(C)(C(=O)O)O2 (centres undefined) |  |  |  | 0 |
